Assay results: patent US10947213B1 (Merck Patent GmbH, priority 2015, dated 2021)

Target: T1, TLR7/NFKb HEK cells (Homo sapiens, UniProt Q9NYK1)
T1 construct: expressed in transfected cells; host or cells: HEK cells (TLR7/NFKb reporter line)
T1 sequence (Q9NYK1 27-1049): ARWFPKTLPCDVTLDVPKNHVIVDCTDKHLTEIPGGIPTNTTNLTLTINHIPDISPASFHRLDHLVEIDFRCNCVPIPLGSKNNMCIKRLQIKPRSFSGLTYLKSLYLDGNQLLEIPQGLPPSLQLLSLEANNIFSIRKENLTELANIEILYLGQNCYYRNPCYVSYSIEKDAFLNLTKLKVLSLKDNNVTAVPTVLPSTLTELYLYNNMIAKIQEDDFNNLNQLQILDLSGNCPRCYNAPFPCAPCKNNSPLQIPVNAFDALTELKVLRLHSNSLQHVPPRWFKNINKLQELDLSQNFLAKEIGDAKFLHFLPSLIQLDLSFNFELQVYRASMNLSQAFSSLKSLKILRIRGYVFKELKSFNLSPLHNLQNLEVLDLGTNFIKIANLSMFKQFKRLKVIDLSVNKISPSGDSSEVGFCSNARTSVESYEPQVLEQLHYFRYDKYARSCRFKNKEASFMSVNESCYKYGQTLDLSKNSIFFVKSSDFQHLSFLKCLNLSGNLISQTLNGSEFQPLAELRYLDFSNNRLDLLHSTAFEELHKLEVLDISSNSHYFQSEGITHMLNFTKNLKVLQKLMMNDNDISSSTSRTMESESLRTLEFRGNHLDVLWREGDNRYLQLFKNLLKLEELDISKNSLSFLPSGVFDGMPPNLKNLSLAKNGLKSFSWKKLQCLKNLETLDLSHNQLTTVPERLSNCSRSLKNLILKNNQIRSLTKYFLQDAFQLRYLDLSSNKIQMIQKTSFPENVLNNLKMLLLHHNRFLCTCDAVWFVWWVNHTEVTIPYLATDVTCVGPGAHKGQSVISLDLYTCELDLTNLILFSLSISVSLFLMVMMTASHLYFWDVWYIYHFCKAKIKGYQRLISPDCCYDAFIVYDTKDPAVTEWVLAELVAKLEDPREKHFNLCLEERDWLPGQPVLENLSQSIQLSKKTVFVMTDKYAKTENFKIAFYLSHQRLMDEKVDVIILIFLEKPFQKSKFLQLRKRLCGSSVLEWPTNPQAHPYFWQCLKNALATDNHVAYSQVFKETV
Assay: HEK Cell Assay (TLR7/NFKb reporter, Steady-Glo luciferase readout)
Format: cell-based
Conditions: 30 min compound preincubation, then R*48 agonist for 5 hours, read-out: Potency
Protocol: Example 142: HEK Cell Assay
Into 384 CulturePlates (Corning 3707) was placed 5000 c/w of TLR7/NFKb HEK cells in 30 uL DMEM without Phenil red (gibco #31053) and 10% i.a. FCS and 2 mM L-ZGLutamin. The cells were incubated for 24 h at 37° C., 10% carbon dioxide and 90% relative humidity. 3 uL of controls, standards, and compounds were dispensed into wells, incubated for 30 min then 3 uL of R*48 agonist in 20 mM Hepes was added. After incubation for 5 hours, they were allowed to stand at room temperature for 15 min. To this was added 10 uL of Steady-Glo substrate reagent and shake assay plate for 5 min at 1500 rpm. The assay plate was allowed to sit for 30 min at room temperature and then the plate was read on EnVision.

IC50 | SMILES
1000 to 10000 nM | N#Cc1ccc(N2C[C@@H](NC(=O)CO)C[C@@H](C(F)(F)F)C2)c2nccnc12 (relative stereo) [Compound 223, cis-N-[1-(8-cyanoquinoxalin-5-yl)-5-(trifluoromethyl)piperidin-3-yl]-2-hydroxyacetamide]
1000 to 10000 nM | N#Cc1ccc(N2C[C@@H](NC(=O)CN3CCOCC3)C[C@@H](C(F)(F)F)C2)c2nccnc12 (relative stereo) [Compound 228, cis-N-[1-(8-cyanoquinoxalin-5-yl)-5-(trifluoromethyl)piperidin-3-yl]-2-(morpholin-4-yl)acetamide]
< 1000 nM | CN1CCN(CC(=O)N[C@H]2C[C@@H](C(F)(F)F)CN(c3ccc(C#N)c4nccnc34)C2)CC1 (relative stereo) [Compound 229, cis-N-[1-(8-cyanoquinoxalin-5-yl)-5-(trifluoromethyl)piperidin-3-yl]-2-(4-methylpiperazin-1-yl)acetamide]
< 1000 nM | N[C@H]1C[C@@H](C2CC2)CN(c2ccc(C(F)(F)F)c3nccnc23)C1 (relative stereo) [Compound 330, cis-5-cyclopropyl-1-[8-(trifluoromethyl)quinoxalin-5-yl]piperidin-3-amine]
< 1000 nM | N[C@H]1C[C@@H](C2CC2)CN(c2ccc(C(F)(F)F)c3ncccc23)C1 (relative stereo) [Compound 331, cis-5-cyclopropyl-1-[8-(trifluoromethyl)quinolin-5-yl]piperidin-3-amine]
< 1000 nM | N[C@H]1C[C@@H](C2CC2)CN(c2ccc(C(F)F)c3ncccc23)C1 (relative stereo) [Compound 332, cis-5-cyclopropyl-1-[8-(difluoromethyl)quinolin-5-yl]piperidin-3-amine]
< 1000 nM | N[C@H]1C[C@@H](C2CC2)CN(c2ccc(F)c3ncccc23)C1 (relative stereo) [Compound 333, cis-5-cyclopropyl-1-(8-fluoroquinolin-5-yl)piperidin-3-amine]
< 1000 nM | COc1ccc(N2C[C@@H](N)C[C@@H](C3CC3)C2)c2cccnc12 (relative stereo) [Compound 334, cis-5-cyclopropyl-1-(8-methoxyquinolin-5-yl)piperidin-3-amine]
> 10000 nM | O=C(CN1CCOCC1)N[C@H]1C[C@@H](C2CC2)CN(c2ccc(C(F)(F)F)c3nccnc23)C1 (relative stereo) [Compound 335, cis-N-[5-cyclopropyl-1-[8-(trifluoromethyl)quinoxalin-5-yl]piperidin-3-yl]-2-(morpholin-4-yl)acetamide]
> 10000 nM | O=C(CN1CCOCC1)N[C@H]1C[C@@H](C2CC2)CN(c2ccc(C(F)(F)F)c3ncccc23)C1 (relative stereo) [Compound 336, cis-N-[5-cyclopropyl-1-[8-(trifluoromethyl)quinolin-5-yl]piperidin-3-yl]-2-(morpholin-4-yl)acetamide]
> 10000 nM | CN(C(=O)CN1CCOCC1)[C@H]1C[C@@H](C2CC2)CN(c2ccc(C(F)(F)F)c3ncccc23)C1 (relative stereo) [Compound 337, cis-N-[5-cyclopropyl-1-[8-(trifluoromethyl)quinolin-5-yl]piperidin-3-yl]-N-methyl-2-(morpholin-4-yl)acetamide]
1000 to 10000 nM | N[C@H]1C[C@@H](C2CC2)CN(c2ccc(F)c3nccnc23)C1 (relative stereo) [Compound 366, cis-5-cyclopropyl-1-(8-fluoroquinoxalin-5-yl)piperidin-3-amine]
< 1000 nM | N#Cc1ccc(N2C[C@@H](NC(=O)CC(F)(F)F)C[C@@H](C(F)(F)F)C2)c2cccnc12 (relative stereo) [Compound 428, cis-N-[1-(8-Cyano-quinolin-5-yl)-5-trifluoromethyl-piperidin-3-yl]-3,3,3-trifluoro-propionamide]
< 1000 nM | CC(C)(C)CC(=O)N[C@H]1C[C@@H](C(F)(F)F)CN(c2ccc(C#N)c3ncccc23)C1 (relative stereo) [Compound 431, cis-N-[1-(8-Cyano-quinolin-5-yl)-5-trifluoromethyl-piperidin-3-yl]-3,3-dimethyl-butyramide]
< 1000 nM | CN1CCC(CC(=O)N[C@H]2C[C@@H](C(F)(F)F)CN(c3ccc(C#N)c4ncccc34)C2)CC1 (relative stereo) [Compound 478, cis-N-[1-(8-Cyano-quinolin-5-yl)-5-trifluoromethyl-piperidin-3-yl]-2-(1-methyl-piperidin-4-yl)-acetamide]
1000 to 10000 nM | N#Cc1ccc(N2C[C@@H](NC(=O)CCC(N)=O)C[C@@H](C(F)(F)F)C2)c2cccnc12 (relative stereo) [Compound 480, cis-N-[1-(8-Cyano-quinolin-5-yl)-5-trifluoromethyl-piperidin-3-yl]-succinamide]
< 1000 nM | C[C@@H]1C[C@H](CN2CCC(N3CCOCC3)CC2)CN(c2ccc(C(F)(F)F)c3ncccc23)C1 (relative stereo) [Compound 535, cis-5-[3-Methyl-5-(4-morpholin-4-yl-piperidin-1-ylmethyl)-piperidin-1-yl]-8-trifluoromethyl-quinoline]
1000 to 10000 nM | C[C@@H]1C[C@@H](CN2CCC(N3CCOCC3)CC2)CN(c2ccc(C(F)(F)F)c3ncccc23)C1 (relative stereo) [Compound 536, trans-5-[3-Methyl-5-(4-morpholin-4-yl-piperidin-1-ylmethyl)-piperidin-1-yl]-8-trifluoromethyl-quinoline]
< 1000 nM | C[C@@H]1C[C@H](C(=O)NCCN2CCN(C)CC2)CN(c2ccc(C#N)c3nccnc23)C1 (relative stereo) [Compound 537, cis-1-(8-Cyano-quinoxalin-5-yl)-5-methyl-piperidine-3-carboxylic acid [2-(4-methyl-piperazin-1-yl)-ethyl]-amide]
1000 to 10000 nM | CNC(=O)[C@@H]1C[C@H](C)CN(c2ccc(C#N)c3nccnc23)C1 (relative stereo) [Compound 541, cis-1-(8-Cyano-quinoxalin-5-yl)-5-methyl-piperidine-3-carboxylic acid methylamide]
1000 to 10000 nM | CNC(=O)[C@@H]1C[C@@H](C)CN(c2ccc(C#N)c3nccnc23)C1 (relative stereo) [Compound 542, trans-1-(8-Cyano-quinoxalin-5-yl)-5-methyl-piperidine-3-carboxylic acid methylamide]
< 1000 nM | C[C@@H]1C[C@H](C(=O)NCC2CCN(C)CC2)CN(c2ccc(C(F)(F)F)c3ncccc23)C1 (relative stereo) [Compound 547, cis-5-Methyl-1-(8-trifluoromethyl-quinolin-5-yl)-piperidine-3-carboxylic Acid (1-methyl-piperidin-4-ylmethyl)-amide]
< 1000 nM | C[C@@H]1C[C@@H](C(=O)NCC2CCN(C)CC2)CN(c2ccc(C(F)(F)F)c3ncccc23)C1 (relative stereo) [Compound 548, trans-5-Methyl-1(8-trifluoromethyl-quinolin-5-yl)-piperidine-3-carboxylic acid (1-methyl-piperidin-4-ylmethyl)-amide]
1000 to 10000 nM | N#Cc1ccc(N2CC(N)CC(C3CC3)C2)c2nccnc12 (single isomer, unassigned) [Compound 69, 8-(3-amino-5-cyclopropylpiperidin-1-yl)quinoxaline-5-carbonitrile]
< 1000 nM | N#Cc1ccc(N2CC(N)CC(C3CC3)C2)c2nccnc12 (single isomer, unassigned) [Compound 70, 8-(3-amino-5-cyclopropylpiperidin-1-yl)quinoxaline-5-carbonitrile]
< 1000 nM | N#Cc1ccc(N2CC(N)CC(C(F)(F)F)C2)c2cccnc12 (single isomer, unassigned) [Compound 72]
< 1000 nM | N#Cc1ccc(N2CC(N)CC(C(F)(F)F)C2)c2cccnc12 (single isomer, unassigned) [Compound 73]
< 1000 nM | N#Cc1ccc(N2CC(N)CC(F)(F)C2)c2nccnc12 (single isomer, unassigned) [Compound 75]
1000 to 10000 nM | N#Cc1ccc(N2CC(N)CC(F)(F)C2)c2nccnc12 (single isomer, unassigned) [Compound 76]
< 1000 nM | N#Cc1ccc(N2CC(N)CC(C(F)(F)F)C2)c2nccnc12 (single isomer, unassigned) [Compound 82]
